According to paper PMC8222276 (Communications Biology, 2021):

Experiments:
[1] = target: T1, AM1 receptor (CLR-RAMP2) in HUVECs (Homo sapiens, UniProt O60895+Q16602); assay: cAMP accumulation in HUVECs; assay type: cell-based; conditions: HUVEC; calcitonin receptor agonists
T1 construct: HUVECs specifically express the AM1 receptor alone; host or cells: primary HUVECs
Method: (§1) Data are analysed using a three-parameter non-linear regression curve or the operational model of receptor agonism. g–h Signalling bias plots were calculated as ∆Log(τ/KA) (g) or ∆∆Log(τ/KA) (h) for each agonist and for each signalling pathway. […] Solid arrows indicate known pathways. Dashed arrows represent possible pathways.
All primary cell lines were cultured as above. On the day of the experiment media was removed and cells washed with PBS, before being dissociated with Trypsin-EDTA 0.05% (Gibco, UK) and then resuspended in PBS/BSA (0.1%) (Sigma, UK). […] Plates were incubated for a further 60 min (room temperature) and then read on a plate reader (Mithras LB 940 microplate reader (Berthold technologies, Germany)). […]
(§2) All sample sizes were determined, and data analysed, in accordance with the guidelines described by Curtis M et al.[65]. […] Statistical differences were analysed using one-way ANOVA followed by Dunnett’s post-hoc (for comparisons amongst more than two groups) or unpaired Student’s t test with Welch’s correction (for comparison between two groups). […] Having obtained values for τ and KA these were then used to quantify signalling bias as the change in Log(τ/KA)[19],[28]. […]

[2] = target: T1, AM1 receptor (CLR-RAMP2) in HUVECs; assay: antagonism of agonist-induced cAMP accumulation in HUVECs; assay type: cell-based; conditions: HUVEC; 100 nM
Method: (§3) All primary cell lines were cultured as above. On the day of the experiment media was removed and cells washed with PBS, before being dissociated with Trypsin-EDTA 0.05% (Gibco, UK) and then resuspended in PBS/BSA (0.1%) (Sigma, UK). Cells were immediately plated for use in cAMP assay as per the manufacturer’s instructions, reagents used were provided by the LANCE® cAMP detection assay kit (PerkinElmer, Boston, MA, USA), in 384 well optiplates (PerkinElmer (Boston, MA, USA)) at 2000 cells/well in 5 μl aliquots. […] Cells were incubated with compound for 30 min prior to adding detection buffer[28],[60]. Plates were incubated for a further 60 min (room temperature) and then read on a plate reader (Mithras LB 940 microplate reader (Berthold technologies, Germany)). All responses were normalised to 100μM forskolin (Tocris, UK). Antagonist studies were performed in the same way through co-stimulation of the relevant concentration. Alongside control-treated cell. Experiments with PTX (Sigma, UK) required pretreatment (16 h) prior to assays.

[3] = target: T2, CGRP receptor (CLR-RAMP1) in human cardiomyocytes (HCMs) (Homo sapiens, UniProt O60894+Q16602); assay: antagonism of agonist-induced cAMP accumulation in HCMs; assay type: cell-based; conditions: HCM; 100 nM
T2 construct: primary human cardiomyocytes (HCMs) since these cells only expressed CLR and RAMP1; host or cells: primary human cardiomyocytes (HCMs)
T2 sequence (Q16602 23-461): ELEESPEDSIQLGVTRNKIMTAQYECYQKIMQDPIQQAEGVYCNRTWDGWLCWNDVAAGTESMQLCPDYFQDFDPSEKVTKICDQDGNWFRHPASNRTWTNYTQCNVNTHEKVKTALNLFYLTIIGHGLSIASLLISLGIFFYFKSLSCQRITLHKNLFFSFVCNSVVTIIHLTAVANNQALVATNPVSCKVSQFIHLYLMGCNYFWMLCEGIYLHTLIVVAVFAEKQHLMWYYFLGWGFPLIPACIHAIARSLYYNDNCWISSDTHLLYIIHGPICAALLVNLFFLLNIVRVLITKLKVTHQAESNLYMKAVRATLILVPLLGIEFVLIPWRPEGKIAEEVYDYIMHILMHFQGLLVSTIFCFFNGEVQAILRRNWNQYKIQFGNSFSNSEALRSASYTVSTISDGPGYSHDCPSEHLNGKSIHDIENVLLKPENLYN
T2 sequence (O60894 27-148): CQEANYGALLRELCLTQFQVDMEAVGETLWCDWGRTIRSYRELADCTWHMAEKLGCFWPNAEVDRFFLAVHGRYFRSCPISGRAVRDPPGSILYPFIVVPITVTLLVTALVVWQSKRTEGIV
Method: as §3

AM receptors = conditions: at concentrations of up to 10 micromolar; ref Doods et al., Br. J. Pharmacol., 129, (2000), pp. 420-423; cited from earlier work
HUVECs = assay: cell proliferation (72 h) of HUVECs; assay type: cell-based, human; conditions: HUVEC, 72 h
Method: as §1
Both endothelial cell lines and HCMs were seeded at a density of 2500 cells/well in a clear flat bottom 96-well plate (Corning, UK) and incubated at 37 °C in 5% CO2. After 24 h, cells were exposed to test compounds or vehicle, in complete endothelial cell growth media (HUVECs) or myocyte growth media (HCMs). Cells were incubated for a further 72 h at 37 °C in 5% CO2. After 72 h incubation, 5 μl of Cell Counting Kit–8 (CCK-8, Sigma, UK) was added to each well and cells were then incubated for another 2 h at 37 °C in 5% CO2 and in the dark[61]. The absorbance of each well was measured using a Mithras LB940 microplate reader with an excitation of 450 nm. The absorbance is directly proportional to the number of viable cells. Cell proliferation was calculated as a percentage of number of cells treated with vehicle alone.
(§4) All sample sizes were determined, and data analysed, in accordance with the guidelines described by Curtis M et al.[65]. All experiments were appropriately controlled using ‘system pathway’ agonists. If any of these pathway controls generated inappropriate responses, then the entire data set was removed from analysis. […] Data analysis for cAMP accumulation, Ca^2+i mobilisation, NO accumulation, pERK1/2 activation, and cell proliferation assays were performed in GraphPad Prism 8.4 (GraphPad Software, San Diego). Data were fitted to obtain concentration–response curves using either the three-parameter logistic equation using to obtain values of Emax and pEC50 or the operational model of agonism. Statistical differences were analysed using one-way ANOVA followed by Dunnett’s post-hoc (for comparisons amongst more than two groups) or unpaired Student’s t test with Welch’s correction (for comparison between two groups). To account for the day-to-day variation experienced from the cultured cells, we used the maximal level of cAMP accumulation from cells in response to 100 μM forskolin stimulation was used as a reference, 10 μM ionomycin for Ca^2+i assays, 10 μM phorbol 12-myristate 13-acetate (PMA) for pERK1/2 activation, 10 μM acetylcholine for NO production and 10 μM VEGF for cell proliferation. […] Where appropriate the operational model for receptor agonism[27] was used to obtain efficacy (τ) and equilibrium disassociation constant (KA) values. In both cases, this normalisation removes the variation due to differences in days but retains the variance for control values. The means of individual experiments were combined to generate the curves shown. Having obtained values for τ and KA these were then used to quantify signalling bias as the change in Log(τ/KA)[19],[28]. Error for this composite measure was propagated by applying Eq. 1.1 PooledSEM=(SEMA)^2+(SEMB)^2 Where, SEMA and SEMB are the standard error of measurement A and B.

[4] = target: T1, AM1 receptor (CLR-RAMP2) in HUVECs; assay: mobilisation of Ca2+i in HUVECs; assay type: cell-based; conditions: HUVEC; Gαq/11/14 inhibitor co-treatment, 100 nM
Method: as §1
All cell lines were plated at 20,000 cells/well on 96-well black clear-bottom plates (Costar, UK) 24 h before the experiment. […] Cells were then washed twice with calcium-free HBSS, then were left in 100 μl calcium-free HBSS for the duration of the assay. […] Data was normalised to the response seen with 10 μM Ionomycin.
as §2, with “al.[65]. All experiments were appropriately controlled using ‘system pathway’ agonists. If any of these pathway controls generated inappropriate responses, then the entire data set was removed from analysis.” for “al.[65].”

[5] = target: T1, AM1 receptor (CLR-RAMP2) in HUVECs; assay: total nitric oxide production in HUVECs; assay type: cell-based; conditions: HUVEC
Method: as §1
Endothelial cells and HCMs were cultured as above. 24 h prior to assay cells were plated on Costar 96-well black clear bottom plates at 40,000 cells/well. The assay was performed according to the manufacturer’s protocol. Briefly, cells pre-incubated with NO dye and assay buffer 1 (Fluorometric Nitric Oxide Assay Kit, Abcam, UK) for 30 min at 37 °C in 5% CO2. Any inhibitors requiring 30 min pre-treatment (YM/L-NAME/DMSO control) were added at this point. Ligand stimulation occurred immediately after this for 15 min at 37 °C in 5% CO2. Stain and ligand solution was removed, assay buffer II was added, and wells were read immediately. The absorbance was measured using a Tecan T200 (Thermo Fisher Scientific UK) reader with an excitation/emission of 540/590 nm. Endothelial cell responses were normalised to 10 μM acetylcholine. HCM responses were normalised to 10 μM isoproterenol[63],[64].
as §4

T1 sequence (Q16602 23-461): as the sequence (Q16602 23-461) above
T1 sequence (O60895 43-175): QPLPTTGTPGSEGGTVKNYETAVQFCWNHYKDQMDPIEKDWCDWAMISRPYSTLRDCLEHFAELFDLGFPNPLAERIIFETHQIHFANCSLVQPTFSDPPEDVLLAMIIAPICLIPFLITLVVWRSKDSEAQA

## calcitonin: calcitonin receptor agonist
[1]
  functional response: unable to detect the presence of its transcript (Fig. 1a) or obtain a functional response

## NCCCC[C@H](NC(=O)[C@@H](Cc1cc(Br)c(O)c(Br)c1)NC(=O)N1CCC(N2Cc3ccccc3NC2=O)CC1)C(=O)N1CCN(c2ccncc2)CC1 [olcegepant]
[2]
  effect on agonist-induced cAMP accumulation: had little effect
[3]
  effect on cAMP accumulation for all three agonists: inhibit cAMP accumulation for all three agonists
AM receptors
  action on AM receptors: no actions on AM receptors

## C=C[C@@]1(C)CC(=O)[C@]2(O)[C@@]3(C)[C@@H](O)CCC(C)(C)[C@@H]3[C@H](O)[C@H](OC(C)=O)[C@@]2(C)O1 [forskolin]
HUVECs
  effect of forskolin on cell proliferation: concentration-dependent inhibition of cell proliferation

## amylin: calcitonin receptor agonist (KCNTATCATQRLANFLVHSSNNFGAILSSTNVGSNTY; Islet amyloid polypeptide; UniProt P10997 34-70, looked up)
[1]
  functional response: unable to detect the presence of its transcript (Fig. 1a) or obtain a functional response

## YM-254890
[4]
  effect of YM-254890 on Ca2+i responses: all responses could be abolished
[5]
  effect of YM-254890 on NO release: abolished all NO release
